Test results published in the supplement of paper PMC10412643.

Assays:
Conditions in all cases: CAMHB, incubation time 20 h
cefiderocol = compound: CC(C)(O/N=C(\C(=O)N[C@@H]1C(=O)N2C(C(=O)[O-])=C(C[N+]3(CCNC(=O)c4ccc(O)c(O)c4Cl)CCCC3)CS[C@H]12)c1csc(N)n1)C(=O)O [cefiderocol]
meropenem = compound: C[C@@H](O)[C@H]1C(=O)N2C(C(=O)O)=C(S[C@@H]3CN[C@H](C(=O)N(C)C)C3)[C@H](C)[C@H]12 [meropenem]
ceftazidime = compound: CC(C)(O/N=C(\C(=O)N[C@@H]1C(=O)N2C(C(=O)[O-])=C(C[n+]3ccccc3)CS[C@H]12)c1csc(N)n1)C(=O)O [ceftazidime]

Test System	MIC (cefiderocol; avibactam 0 µg/mL) [µg/mL]	MIC (cefiderocol; avibactam 8 µg/mL) [µg/mL]	MIC (meropenem; avibactam 0 µg/mL) [µg/mL]	MIC (meropenem; avibactam 8 µg/mL) [µg/mL]	MIC (ceftazidime; avibactam 0 µg/mL) [µg/mL]	MIC (ceftazidime; avibactam 8 µg/mL) [µg/mL]
A. xylosoxidans ACH02	0.25	0.25	1	1	2	2
A. xylosoxidans ACH03	0.125	0.125	0.25	0.25	1	1
A. xylosoxidans ACH09	0.25	0.25	0.125	0.125	1	1
B. cenocepacia 110041	0.0625	0.0625	32	4	–	–
B. cenocepacia 130723	0.5	0.25	4	1	16	8
B. cenocepacia 134991	> 4	> 4	2	2	8	8
B. cenocepacia BC7	> 4	> 4	16	1	16	16
B. cenocepacia F3071909	> 4	> 4	16	2	32	32
B. cenocepacia F4200989-3	2	1	32	4	128	32
B. cenocepacia F9141525	0.5	0.5	32	4	128	16
B. cenocepacia G11815681	2	0.5	32	2	16	8
B. cenocepacia K56-2	0.125	0.125	16	2	32	–
B. cenocepacia VC10414	0.125	0.125	32	2	8	–
B. cenocepacia VC14488	0.25	0.25	4	1	–	2
B. cenocepacia VC14543	0.125	0.0625	16	4	8	8
B. cenocepacia VC14761	0.125	0.0625	4	1	2	2
B. contaminans 21NG595759	1	2	32	8	16	8
B. contaminans 21NG609698	2	2	32	8	16	–
B. contaminans LMG23361	0.125	0.125	4	0.5	2	2

Test System	MIC (cefiderocol; avibactam 0 µg/mL) [µg/mL]	MIC (cefiderocol; avibactam 8 µg/mL) [µg/mL]	MIC (meropenem; avibactam 0 µg/mL) [µg/mL]	MIC (meropenem; avibactam 8 µg/mL) [µg/mL]	MIC (ceftazidime; avibactam 0 µg/mL) [µg/mL]	MIC (ceftazidime; avibactam 8 µg/mL) [µg/mL]
B. dolosa AU0645	> 4	> 4	16	2	> 128	8
B. dolosa AU2167	> 4	> 4	32	1	64	–
B. dolosa AU6940	2	2	32	2	16	16
B. dolosa CEP021	0.5	0.5	2	1	2	1
B. dolosa LM018941	> 4	> 4	16	0.5	16	2
B. gladioli 113611	4	4	2	2	32	32
B. gladioli 132208	0.5	0.5	0.5	0.5	2	2
B. gladioli VC14812	0.5	0.5	8	8	32	16
B. gladioli VC19233	0.25	0.25	1	1	–	2
B. multivorans 130034	0.125	0.125	8	4	8	8
B. multivorans 131077	0.125	0.125	4	1	8	8
B. multivorans 134955	0.125	0.125	8	1	8	8
B. multivorans C5393	0.25	0.25	16	1	8	–
B. multivorans F9091687	0.25	0.25	0.5	0.5	2	2
B. multivorans LM013010	0.25	0.25	8	1	–	–
B. multivorans V1120157	0.125	0.125	1	1	2	2
B. multivorans VC9825	0.25	0.125	2	1	2	2
B. multivorans VC15535	0.5	0.5	16	8	32	16
B. multivorans VC15555	> 4	> 4	8	4	2	2

Test System	MIC (cefiderocol; avibactam 0 µg/mL) [µg/mL]	MIC (cefiderocol; avibactam 8 µg/mL) [µg/mL]	MIC (meropenem; avibactam 0 µg/mL) [µg/mL]	MIC (meropenem; avibactam 8 µg/mL) [µg/mL]	MIC (ceftazidime; avibactam 0 µg/mL) [µg/mL]	MIC (ceftazidime; avibactam 8 µg/mL) [µg/mL]
B. multivorans VC19694	1	1	8	4	–	1
B. vietnamiensis CEP40	0.125	0.0625	1	1	–	2
B. vietnamiensis VC11431	1	0.125	16	1	32	2
B. vietnamiensis VC18984	> 4	> 4	8	4	16	–
P. aeruginosa 20NB681421	1	1	1	0.5	4	4
P. aeruginosa 21NE72623	> 4	> 4	0.5	0.125	16	2
P. aeruginosa 70	0.5	0.5	0.125	0.125	0.5	0.5
P. aeruginosa 71	4	4	32	4	> 128	4
P. aeruginosa 74	> 4	> 4	16	2	128	2
P. aeruginosa PA14	1	1	0.5	0.25	2	2
P. aeruginosa PAO1	1	1	0.5	0.5	1	1
S. maltophilia 03 T2510	1	1	> 64	> 64	32	32
S. maltophilia 04 T22674	0.5	0.5	16	16	2	2
S. maltophilia 05 41846	0.5	0.5	> 64	> 64	4	4
S. maltophilia 20NC580771	0.25	0.25	> 64	> 64	> 128	> 128
S. maltophilia 21NE928511	> 4	> 4	> 64	> 64	> 128	> 128
S. maltophilia D457	0.125	0.125	32	32	1	1
S. maltophilia K279a	0.125	0.125	2	2	2	1
